Measurements reported in US8354441B2, “Oxazoline derivatives” (Hoffmann-La Roche Inc., priority 2009, dated 2013).

Tests used:
rat TAAR1 = target: T1, rat TAAR1 (Rattus norvegicus, UniProt Q923Y9); test: TAAR1 radioligand binding with [3H]-rac-2-(1,2,3,4-tetrahydro-1-naphthyl)-2-imidazoline, membranes of stably transfected HEK293 cells; conditions: second value of the cell, read-out: Ki (μM) mouse/rat: rat
T1 construct: expressed in transfected cells; host or cells: HEK293 (ATCC # CRL-1573), stably transfected with pIRESneo2 expression plasmid
Procedure: (§1) For the construction of expression plasmids the coding sequences of human, rat and mouse TAAR 1 were amplified from genomic DNA essentially as described by Lindemann et al.. The Expand High Fidelity PCR System (Roche Diagnostics) was used with 1.5 mM Mg^2+ and purified PCR products were cloned into pCR2.1-TOPO cloning vector (Invitrogen) following the instructions of the manufacturer. PCR products were subcloned into the pIRESneo2 vector (BD Clontech, Palo Alto, Calif.), and expression vectors were sequence verified before introduction in cell lines.
(§2) HEK293 cells (ATCC # CRL-1573) were cultured essentially as described by Lindemann et al. (2005). For the generation of stably transfected cell lines HEK293 cells were transfected with the pIRESneo2 expression plasmids containing the TAAR coding sequences (described above) with Lipofectamine 2000 (Invitrogen) according to the instructions of the manufacturer, and 24 hrs post transfection the culture medium was supplemented with 1 mg/ml G418 (Sigma, Buchs, Switzerland). After a culture period of about 10 d clones were isolated, expanded and tested for responsiveness to trace amines (all compounds purchased from Sigma) with the cAMP Biotrak Enzyme immunoassay (EIA) System (Amersham) following the non-acetylation EIA procedure provided by the manufacturer.
(§3) Cells at confluence were rinsed with ice-cold phosphate buffered saline without Ca^2+ and Mg^2+ containing 10 mM EDTA and pelleted by centrifugation at 1000 rpm for 5 min at 4° C. The pellet was then washed twice with ice-cold phosphate buffered saline and the cell pellet was frozen immediately by immersion in liquid nitrogen and stored until use at −80° C. The cell pellet was then suspended in 20 ml HEPES-NaOH (20 mM), pH 7.4 containing 10 mM EDTA, and homogenized with a Polytron (PT 3000, Kinematica) at 10,000 rpm for 10 s. The homogenate was centrifuged at 48,000×g for 30 min at 4° C. and the pellet resuspended in 20 ml HEPES-NaOH (20 mM), pH 7.4 containing 0.1 mM EDTA (buffer A), and homogenized with a Polytron at 10,000 rpm for 10 s. The homogenate was then centrifuged at 48,000×g for 30 min at 4° C. and the pellet resuspended in 20 ml buffer A, and homogenized with a Polytron at 10,000 rpm for 10 s. Protein concentration was determined by the method of Pierce (Rockford, Ill.). The homogenate was then centrifuged at 48,000×g for 10 min at 4° C., resuspended in HEPES-NaOH (20 mM), pH 7.0 including MgCl2 (10 mM) and […] homogenized with a Polytron at 10,000 rpm for 10 s.
(§4) The binding assay was performed at 4° C. in a final volume of 1 ml, and with an incubation time of 30 min. The radioligand [^3H]-rac-2-(1,2,3,4-tetrahydro-1-naphthyl)-2-imidazoline was used at a concentration equal to the calculated Kd value of 60 nM to give a bound at around 0.1% of the total added radioligand concentration, and a specific binding which represented approximately 70-80% of the total binding. Non-specific binding was defined as the amount of [^3H]-rac-2-(1,2,3,4-tetrahydro-1-naphthyl)-2-imidazoline bound in the presence of the appropriate unlabelled ligand (10 μM). Competing ligands were tested in a wide range of concentrations (10 pM-30 μM). […] Each experiment was performed in duplicate. All incubations were terminated by rapid filtration through UniFilter-96 plates (Packard Instrument Company) and glass filter GF/C, pre-soaked for at least 2 h in polyethylenimine 0.3%, and using a Filtermate 96 Cell Harvester (Packard Instrument Company). The tubes and filters were then washed 3 times with 1 ml aliquots of cold buffer B. Filters were not dried and soaked in Ultima gold (45 μl/well, Packard Instrument Company) and bound radioactivity was counted by a TopCount Microplate Scintillation Counter (Packard Instrument Company).

mouse TAAR1 = target: T2, mouse TAAR1 (Mus musculus, UniProt Q923Y8); test: as above; conditions: first value of the cell, read-out: Ki (μM) mouse/rat: mouse
T2 construct: expressed in transfected cells; host or cells: HEK293 (ATCC # CRL-1573), stably transfected with pIRESneo2 expression plasmid
Procedure: as §1, §2, §3, §4

T2 sequence (Q923Y8 whole entry): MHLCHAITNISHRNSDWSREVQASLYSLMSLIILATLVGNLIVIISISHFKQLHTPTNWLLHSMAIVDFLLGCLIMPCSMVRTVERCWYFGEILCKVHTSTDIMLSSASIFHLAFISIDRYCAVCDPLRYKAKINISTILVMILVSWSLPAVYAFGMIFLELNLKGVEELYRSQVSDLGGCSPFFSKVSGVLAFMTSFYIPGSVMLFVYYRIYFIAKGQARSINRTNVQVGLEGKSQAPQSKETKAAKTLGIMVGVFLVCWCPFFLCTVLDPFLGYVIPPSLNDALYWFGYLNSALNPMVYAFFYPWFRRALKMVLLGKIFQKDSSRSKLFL
T1 sequence (Q923Y9 whole entry): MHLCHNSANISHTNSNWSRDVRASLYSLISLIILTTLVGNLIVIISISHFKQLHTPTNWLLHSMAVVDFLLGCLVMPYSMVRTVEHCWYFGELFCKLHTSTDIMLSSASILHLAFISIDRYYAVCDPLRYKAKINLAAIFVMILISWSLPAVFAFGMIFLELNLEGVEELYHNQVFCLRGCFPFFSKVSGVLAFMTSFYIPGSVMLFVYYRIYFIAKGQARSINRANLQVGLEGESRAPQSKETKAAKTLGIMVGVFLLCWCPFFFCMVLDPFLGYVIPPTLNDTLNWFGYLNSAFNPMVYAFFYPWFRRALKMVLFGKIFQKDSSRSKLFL

Row | Ki (rat TAAR1) | Ki (mouse TAAR1) | SMILES
1 | 0.0018 µM | 0.0057 µM | NC1=N[C@@H](CCc2ccc(NC(=O)c3ncc(F)cc3F)cc2)CO1 [Example 87, 3,5-Difluoro-pyridine-2-carboxylic acid {4-[2-((S)-2-amino-4,5-dihydro-oxazol-4-yl)-ethyl]-phenyl}-amide]
2 | 0.0014 µM | 0.0097 µM | NC1=N[C@@H](CCc2ccc(NC(=O)c3cccc(F)n3)cc2)CO1 [Example 88, 6-Fluoro-pyridine-2-carboxylic acid {4-[2-((S)-2-amino-4,5-dihydro-oxazol-4-yl)-ethyl]-phenyl}-amide]
3 | 0.0007 µM | 0.0044 µM | NC1=N[C@@H](CCc2ccc(NC(=O)c3nc(Cl)ccc3F)cc2)CO1 [Example 89, 6-Chloro-3-fluoro-pyridine-2-carboxylic acid {4-[2-((S)-2-amino-4,5-dihydro-oxazol-4-yl)-ethyl]-phenyl}-amide]
4 | 0.0003 µM | 0.0007 µM | NC1=N[C@@H](CCc2ccc(NC(=O)c3cc(Cl)ccn3)cc2)CO1 [Example 90, 4-Chloro-pyridine-2-carboxylic acid {4-[2-((S)-2-amino-4,5-dihydro-oxazol-4-yl)-ethyl]-phenyl}-amide]
5 | 0.0002 µM | 0.0005 µM | NC1=N[C@@H](CCc2ccc(NC(=O)c3ccc4ccccc4n3)cc2)CO1 [Example 91, Quinoline-2-carboxylic acid {4-[2-((S)-2-amino-4,5-dihydro-oxazol-4-yl)-ethyl]-phenyl}-amide]
6 | 0.0004 µM | 0.0002 µM | NC1=N[C@@H](CCc2ccc(NC(=O)c3ccc(Br)cn3)cc2)CO1 [Example 92, 5-Bromo-pyridine-2-carboxylic acid {4-[2-((S)-2-amino-4,5-dihydro-oxazol-4-yl)-ethyl]-phenyl}-amide]
7 | 0.0003 µM | 0.0016 µM | NC1=N[C@@H](CCc2ccc(NC(=O)c3nccc4ccccc34)cc2)CO1 [Example 93, Isoquinoline-1-carboxylic acid {4-[2-((S)-2-amino-4,5-dihydro-oxazol-4-yl)-ethyl]-phenyl}-amide]
8 | 0.0003 µM | 0.0003 µM | NC1=N[C@@H](CCc2ccc(NC(=O)Nc3ccc(F)cc3)cc2)CO1 [Example 94, 1-{4-[2-((S)-2-Amino-4,5-dihydro-oxazol-4-yl)-ethyl]-phenyl}-3-(4-fluoro-phenyl)-urea]
9 | 0.0001 µM | 0.0001 µM | NC1=N[C@@H](CCc2ccc(NC(=O)Nc3cccc(Cl)c3)cc2)CO1 [Example 95, 1-{4-[2-((S)-2-Amino-4,5-dihydro-oxazol-4-yl)-ethyl]-phenyl}-3-(3-chloro-phenyl)-urea]
10 | 0.0006 µM | 0.001 µM | NC1=N[C@@H](CCc2ccc(NC(=O)c3ccc(F)cn3)cc2)CO1 [Example 96, (S)-N-(4-(2-(2-amino-4,5-dihydrooxazol-4-yl)ethyl)phenyl)-5-fluoropicolinamide]
11 | 0.0015 µM | 0.0018 µM | COc1ccc(C(=O)Nc2ccc(CC[C@H]3COC(N)=N3)cc2)cn1 [Example 97, N-{4-[2-((S)-2-Amino-4,5-dihydro-oxazol-4-yl)-ethyl]-phenyl}-6-methoxy-nicotinamide]
12 | 0.0019 µM | 0.0068 µM | Cc1ccc(C(=O)Nc2ccc(CC[C@H]3COC(N)=N3)cc2)cn1 [Example 98, N-{4-[2-((S)-2-Amino-4,5-dihydro-oxazol-4-yl)-ethyl]-phenyl}-6-methyl-nicotinamide]
13 | 0.0018 µM | 0.0081 µM | NC1=N[C@@H](CCc2ccc(NC(=O)c3cccnc3F)cc2)CO1 [Example 99, (S)-N-(4-(2-(2-amino-4,5-dihydrooxazol-4-yl)ethyl)phenyl)-2-fluoronicotinamide]
14 | 0.0018 µM | 0.004 µM | NC1=N[C@@H](CCc2ccc(NC(=O)c3cncc(F)c3)cc2)CO1 [Example 100, N-{4-[2-((S)-2-Amino-4,5-dihydro-oxazol-4-yl)-ethyl]-phenyl}-5-fluoro-nicotinamide]
15 | 0.0021 µM | 0.0007 µM | NC1=N[C@@H](CCc2ccc(NC(=O)c3ncc(C(F)(F)F)cc3Cl)cc2)CO1 [Example 101, 3-Chloro-5-trifluoromethyl-pyridine-2-carboxylic acid {4-[2-((S)-2-amino-4,5-dihydro-oxazol-4-yl)-ethyl]-phenyl}-amide]
16 | 0.0014 µM | 0.0034 µM | NC1=N[C@@H](CCc2ccc(NC(=O)c3ccc4cnccc4n3)cc2)CO1 [Example 104, [1,6]Naphthyridine-2-carboxylic acid {4-[2-((S)-2-amino-4,5-dihydro-oxazol-4-yl)-ethyl]-phenyl}-amide]
17 | 0.0011 µM | 0.0051 µM | NC1=N[C@@H](CCc2ccc(NC(=O)c3ccc4cccnc4n3)cc2)CO1 [Example 105, [1,8]Naphthyridine-2-carboxylic acid {4-[2-((S)-2-amino-4,5-dihydro-oxazol-4-yl)-ethyl]-phenyl}-amide]
18 | 0.0009 µM | 0.0012 µM | NC1=N[C@@H](CCc2ccc(NC(=O)c3ccc(Br)nc3)cc2)CO1 [Example 106, N-{4-[2-((S)-2-Amino-4,5-dihydro-oxazol-4-yl)-ethyl]-phenyl}-6-bromo-nicotinamide]
19 | 0.0012 µM | 0.0014 µM | NC1=N[C@@H](CCc2ccc(NC(=O)c3cc(F)cnc3F)cc2)CO1 [Example 107, N-{4-[2-((S)-2-Amino-4,5-dihydro-oxazol-4-yl)-ethyl]-phenyl}-2,5-difluoro-nicotinamide]
20 | 0.0016 µM | 0.0006 µM | NC1=N[C@@H](CCc2ccc(NC(=O)c3cnc(Cl)c(Cl)c3)cc2)CO1 [Example 109, N-{4-[2-((S)-2-Amino-4,5-dihydro-oxazol-4-yl)-ethyl]-phenyl}-5,6-dichloro-nicotinamide]
21 | 0.0048 µM | 0.0054 µM | NC1=N[C@@H](CCc2ccc(NC(=O)c3ccc(F)nc3F)cc2)CO1 [Example 110, N-{4-[2-((S)-2-Amino-4,5-dihydro-oxazol-4-yl)-ethyl]-phenyl}-2,6-difluoro-nicotinamide]
22 | 0.0057 µM | 0.004 µM | N#Cc1ccc(C(=O)Nc2ccc(CC[C@H]3COC(N)=N3)cc2)cn1 [Example 111, N-{4-[2-((S)-2-Amino-4,5-dihydro-oxazol-4-yl)-ethyl]-phenyl}-6-cyano-nicotinamide]
23 | 0.0005 µM | 0.0013 µM | NC1=N[C@@H](CCc2ccc(NC(=O)c3cccc(Br)n3)cc2)CO1 [Example 112, 6-Bromo-pyridine-2-carboxylic acid {4-[2-((S)-2-amino-4,5-dihydro-oxazol-4-yl)-ethyl]-phenyl}-amide]
24 | 0.001 µM | 0.0006 µM | NC1=N[C@@H](CCc2ccc(NC(=O)c3ccc(OCC(F)(F)F)nc3)cc2)CO1 [Example 113, N-{4-[2-((S)-2-Amino-4,5-dihydro-oxazol-4-yl)-ethyl]-phenyl}-6-(2,2,2-trifluoro-ethoxy)-nicotinamide]
25 | 0.0024 µM | 0.0029 µM | COc1ncccc1C(=O)Nc1ccc(CC[C@H]2COC(N)=N2)cc1 [Example 115, N-{4-[2-((S)-2-Amino-4,5-dihydro-oxazol-4-yl)-ethyl]-phenyl}-2-methoxy-nicotinamide]
26 | 0.0008 µM | 0.002 µM | COc1ccc(C(=O)Nc2ccc(CC[C@H]3COC(N)=N3)cc2)nc1 [Example 117, (S)-N-(4-(2-(2-Amino-4,5-dihydrooxazol-4-yl)ethyl)phenyl)-5-methoxypicolinamide]
